Read-outs that look alike come from different tables or passages of the source.
Legend:
human CD8+ T cells = settings: for T cell proliferation: IL-2
[1] = system: human lymphocytes and neutrophils; settings: up to 1% v/v DMSO, PMA for 4 hours; cited from earlier work
lymphoma cell = settings: cited from earlier work
CD4+ T cell = settings: cited from earlier work
[2] = DMSO treated vs untreated, day 11, 1.2% DMSO

## C[S+](C)[O-] [DMSO, Dimethyl sulfoxide]
Human CD8+ T cells
  effect on survival of the cells: does not have a negative effect on survival
  survival rate: small increases in survival rate
Human CD8+ T cells; 0.6% DMSO
  T cell proliferation: still tolerated
Human CD8+ T cells; 1.2% DMSO
  T cell proliferation: marked decrease in T cell proliferation
Human CD8+ T cells; CD8+ T cells purified from the same donor, IL-12 stimulation, IL-7 and IL-15, 1.2% DMSO, day 13
  CD8+ T cell differentiation: clearly skewed from naïve-like towards a TCM phenotype
Human CD8+ T cells; [2]
  expression level of CD25: lower
  expression of CD69: higher
Human CD8+ T cells; IL-2, increasing DMSO
  decrease in proportion of CD8+ T cells expressing TIM-3: ~4%
  proportion of cells expressing PD-1 after stimulation: seems to decrease faster by day 7
Human CD8+ T cells; IL-7 and IL-15
  T cell differentiation: preferentially differentiate towards a TCM phenotype
Human CD8+ T cells; IL-7 and IL-15, prolonged culture
  DMSO concentration with inhibitory effect on T cell proliferation: ≥ 0.6%
Human CD8+ T cells; fluorescence intensity, in the presence of DMSO
  TIM-3 expression level: markedly reduced
Human CD8+ T cells; increasing DMSO (0.1%-1.2%)
  frequency of CD25 positive cells: decreases in time and with increasing DMSO concentration
  proportion of CD69 positive cells: increases with increasing concentrations of DMSO
Human CD8+ T cells; increasing DMSO, most clear with IL-2, day 11
  T cell differentiation subsets: a decrease in naive and effector CD8^+ T cells in favor of an increase in memory T cells
Human CD3+ T cells; 1.2% DMSO
  cell surface marker expression (CD25, CD69, PD-1): cell surface marker expression is increased
Human CD3+ T cells; 1.2% DMSO, IL-7 and IL-15, day 13
  frequency of CD25 and CD69 positive cells: increases in the presence of DMSO
Human CD3+ T cells; 1.2% DMSO, day 13
  CD3+ T cell differentiation: skews CD3^+ T cell differentiation towards a central memory phenotype
  proportion of cells expressing PD-1: seems to slightly increase
Human CD3+ T cells; 1.2% DMSO, about 20% in the untreated condition
  TCM population of CD8+ T cells: over 80%
Human CD3+ T cells; DMSO up to 0.6%
  expression of activation and exhaustion markers (CD25, CD69, PD-1): does not alter the expression of activation and exhaustion markers
Human CD3+ T cells; human, 13 day, 1.2 % v/v
  CD3+ T cell survival and subset distribution: did not impact CD3^+ T cell survival nor CD4′/CD8′ subset distribution
Human CD3+ T cells; human, 14 day
  CD3+ T cell survival and proliferation: did not impact CD3^+ T cell survival and proliferation
Human CD3+ T cells; increasing DMSO
  impact on CD4+ T cell differentiation: less pronounced
Human CD3+ T cells; increasing DMSO, day 14
  CD4+/CD8+ subset distribution: does not have an impact on the subset distribution
[1]
  IFN-γ and TNF-α production in the cytoplasm: did not change IFN-γ and TNF-α production
Lymphoma cell
  DMSO concentrations at which lymphoma cell death is prevented: 1-2%
CD4+ T cell
  DMSO concentrations that suppress CD4+ T cell activation, cell growth and cytokine secretion: 0.1-1%
